The text below walks through data of patent publication US10344025B2, “GLS1 inhibitors for treating disease” (Board of Regents, The University of Texas System, priority 2014, dated 2019).

Read-outs that look alike come from different tables or passages of the source.

Assay [1] concerns the target purified recombinant human GAC (GLS1) (Homo sapiens (Human), UniProt O94925). As to the kind of experiment: GLS1 Enzymatic Activity Assay (dual-coupled enzymatic assay, resorufin/Amplex UltraRed readout).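 Further: glutamate from GAC coupled via glutamate oxidase and peroxidase to resorufin, read as fluorescence (ex 530, em 590 nm) kinetically or at 20 min, four-parameter logistic IC50 fit.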 It is filed as biochemical.
The test system of a further assay is A549 cells. As to the kind of experiment: Proliferation Assay (A549 viability, Cell Titer Fluor, 72 hours). It is filed as cell-based. The essentials:
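A549 cells seeded at 1000 cells/well, rested 24 h, then exposed to compound in 0.5% DMSO for 72 h at 37 °C. Viability read by Cell Titer Fluor fluorescence; IC50 from four-parameter logistic fit.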

purified recombinant human GAC (GLS1), sequence (O94925 other isoform, or with tags, fused parts or gaps): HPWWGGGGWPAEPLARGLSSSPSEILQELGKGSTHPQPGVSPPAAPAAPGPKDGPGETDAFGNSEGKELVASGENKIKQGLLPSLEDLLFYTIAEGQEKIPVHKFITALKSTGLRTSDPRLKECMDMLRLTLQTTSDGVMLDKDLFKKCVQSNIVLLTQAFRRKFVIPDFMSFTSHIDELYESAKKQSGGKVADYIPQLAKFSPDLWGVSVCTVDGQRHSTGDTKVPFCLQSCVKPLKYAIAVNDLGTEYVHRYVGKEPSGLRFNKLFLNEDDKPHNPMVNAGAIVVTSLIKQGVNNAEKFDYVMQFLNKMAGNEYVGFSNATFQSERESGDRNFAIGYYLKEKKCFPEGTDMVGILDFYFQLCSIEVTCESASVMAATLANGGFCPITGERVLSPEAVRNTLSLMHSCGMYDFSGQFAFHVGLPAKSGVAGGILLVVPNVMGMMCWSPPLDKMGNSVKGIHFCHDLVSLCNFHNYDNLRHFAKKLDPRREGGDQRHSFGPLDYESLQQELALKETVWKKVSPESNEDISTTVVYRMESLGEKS

Consider `O=C(NCc1cncc(C(F)(F)F)c1)c1cn(CCCCn2cc(C(=O)NCC3CCCO3)nn2)nn1` (stereo not drawn) [Example 92, N-(oxolan-2-ylmethyl)-1-{4-[4-({[5-(trifluoromethyl)pyridin-3-yl]methyl}carbamoyl)-1H-1,2,3-triazol-1-yl]butyl}-1H-1,2,3-triazole-4-carboxamide], for which the IC50 (in general, the concentration that gives 50% inhibition) in assay [1] lay within 500 to 5000 nM. In the assay with A549 cells (Homo sapiens, A549, 72 h), the EC50 – broadly, the concentration giving half of the maximal effect – lay in the range of 500 to 5000 nM.

Regarding `O=C(NCc1cncc(C(F)(F)F)c1)c1cn(CCCCn2cc(C(=O)NCC3CCC3)nn2)nn1` [Example 93, N-(cyclobutylmethyl)-1-{4-[4-({[5-(trifluoromethyl)pyridin-3-yl]methyl}carbamoyl)-1H-1,2,3-triazol-1-yl]butyl}-1H-1,2,3-triazole-4-carboxamide], in assay [1], the IC50 fell in the range of 100 to 500 nM. The compound also yielded an EC50 with A549 cells (Homo sapiens, A549, 72 h) of 500 to 5000 nM.

Turning to `O=C(NCc1cccc(OC(F)(F)F)c1)c1cn(CCCCn2cc(C(=O)NCC3CCOCC3)nn2)nn1` [Example 94, N-(oxan-4-ylmethyl)-1-{4-[4-({[3-(trifluoromethoxy)phenyl]methyl}carbamoyl)-1H-1,2,3-triazol-1-yl]butyl}-1H-1,2,3-triazole-4-carboxamide], in assay [1], the IC50 is 100 to 500 nM. In the assay with A549 cells (Homo sapiens, A549, 72 h), the EC50 fell in the range of 100 to 500 nM.

Take `CNC(=O)c1cn(CCCCn2cc(C(=O)NCc3cccc(OC(F)(F)F)c3)nn2)nn1` [Example 95, N-methyl-1-{4-[4-({[3-(trifluoromethoxy)phenyl]methyl}carbamoyl)-1H-1,2,3-triazol-1-yl]butyl}-1H-1,2,3-triazole-4-carboxamide]: in assay [1], the half-maximal inhibitory concentration (IC50) fell in the range of 100 to 500 nM. The compound further returned an EC50 in the assay on A549 cells (Homo sapiens, A549, 72 h) of 100 to 500 nM.

With `O=C(NCc1ccccc1)c1cn(CCCCn2cc(C(=O)NCc3cc(C(F)(F)F)ccn3)nn2)nn1` [Example 96, 1-{4-[4-(benzylcarbamoyl)-1H-1,2,3-triazol-1-yl]butyl}-N-{[4-(trifluoromethyl)pyridin-2-yl]methyl}-1H-1,2,3-triazole-4-carboxamide], the IC50 in assay [1] lay within 100 to 500 nM. The EC50 in the assay on A549 cells (Homo sapiens, A549, 72 h) is 100 to 500 nM.

Consider `O=C(NCc1cccc(C(F)(F)F)c1)c1cn(CCCCn2cc(C(=O)NCc3cc(C(F)(F)F)ccn3)nn2)nn1` [Example 97, 1-{4-[4-({[3-(trifluoromethyl)phenyl]methyl}carbamoyl)-1H-1,2,3-triazol-1-yl]butyl}-N-{[4-(trifluoromethyl)pyridin-2-yl]methyl}-1H-1,2,3-triazole-4-carboxamide], for which the IC50 in assay [1] was less than 100 nM. The same compound registered an EC50 in the assay with A549 cells (Homo sapiens, A549, 72 h) of less than 100 nM.

For `C[C@@H](NC(=O)c1cn(CCCCn2cc(C(=O)NCc3cc(C(F)(F)F)ccn3)nn2)nn1)c1ccccc1` [Example 98, 1-[4-(4-{[(1R)-1-phenylethyl]carbamoyl}-1H-1,2,3-triazol-1-yl)butyl]-N-{[4-(trifluoromethyl)pyridin-2-yl]methyl}-1H-1,2,3-triazole-4-carboxamide], in assay [1], the IC50 lay within 500 to 5000 nM. This compound returned an EC50 in the assay with A549 cells (Homo sapiens, A549, 72 h) of 500 to 5000 nM.

Turning to `C[C@H](NC(=O)c1cn(CCCCn2cc(C(=O)NCc3cc(C(F)(F)F)ccn3)nn2)nn1)c1ccccc1` [Example 99, 1-[4-(4-{[(1S)-1-phenylethyl]carbamoyl}-1H-1,2,3-triazol-1-yl)butyl]-N-{[4-(trifluoromethyl)pyridin-2-yl]methyl}-1H-1,2,3-triazole-4-carboxamide], in assay [1], the IC50 was in the range of 500 to 5000 nM. Further, in the assay on A549 cells (Homo sapiens, A549, 72 h), the 50% effective concentration (EC50) lay in the range of 500 to 5000 nM.

Turning to `O=C(NCc1cc(C(F)(F)F)ccn1)c1cn(CCCCn2cc(C(=O)N[C@@H](CO)c3ccccc3)nn2)nn1` [Example 100, 1-[4-(4-{[(1R)-2-hydroxy-1-phenylethyl]carbamoyl}-1H-1,2,3-triazol-1-yl)butyl]-N-{[4-(trifluoromethyl)pyridin-2-yl]methyl}-1H-1,2,3-triazole-4-carboxamide], the IC50 in assay [1] lay within 500 to 5000 nM. In the assay with A549 cells (Homo sapiens, A549, 72 h), this compound gave an EC50 greater than 5000 nM.

For the compound `O=C(NCc1cc(C(F)(F)F)ccn1)c1cn(CCCCn2cc(C(=O)N[C@H](CO)c3ccccc3)nn2)nn1` [Example 101, 1-[4-(4-{[(1S)-2-hydroxy-1-phenylethyl]carbamoyl}-1H-1,2,3-triazol-1-yl)butyl]-N-{[4-(trifluoromethyl)pyridin-2-yl]methyl}-1H-1,2,3-triazole-4-carboxamide], in assay [1], the IC50 was in the range of 500 to 5000 nM. This compound also gave an EC50 in the assay on A549 cells (Homo sapiens, A549, 72 h) of 500 to 5000 nM.

For `O=C(NCc1cc(C(F)(F)F)ccn1)c1cn(CCCCn2cc(C(=O)NC[C@H]3CC4CCC3O4)nn2)nn1` (stereo partly drawn) [Example 102, 1-[4-(4-{[(2R)-7-oxabicyclo[2.2.1]heptan-2-ylmethyl]carbamoyl}-1H-1,2,3-triazol-1-yl)butyl]-N-{[4-(trifluoromethyl)pyridin-2-yl]methyl}-1H-1,2,3-triazole-4-carboxamide], the 50% inhibitory concentration (IC50) in assay [1] fell in the range of 500 to 5000 nM. In addition, the concentration giving a half-maximal response (EC50) in the assay on A549 cells (Homo sapiens, A549, 72 h) fell in the range of 500 to 5000 nM.

As to `O=C(NCc1cc(C(F)(F)F)ccn1)c1cn(CCCCn2cc(C(=O)NC[C@@H]3CC4CCC3O4)nn2)nn1` (stereo partly drawn) [Example 103, 1-[4-(4-{[(2S)-7-oxabicyclo[2.2.1]heptan-2-ylmethyl]carbamoyl}-1H-1,2,3-triazol-1-yl)butyl]-N-{[4-(trifluoromethyl)pyridin-2-yl]methyl}-1H-1,2,3-triazole-4-carboxamide], the IC50 in assay [1] was 100 to 500 nM. For the same compound, in the assay with A549 cells (Homo sapiens, A549, 72 h), the 50% effective concentration (EC50) lay in the range of 500 to 5000 nM.

Take `O=C(NCc1cc(C(F)(F)F)ccn1)c1cn(CCCCn2cc(C(=O)NC3CCCC3)nn2)nn1` [Example 104, 1-{4-[4-(cyclopentylcarbamoyl)-1H-1,2,3-triazol-1-yl]butyl}-N-{[4-(trifluoromethyl)pyridin-2-yl]methyl}-1H-1,2,3-triazole-4-carboxamide]: the IC50 in assay [1] is 500 to 5000 nM. The same compound had an EC50 in the assay on A549 cells (Homo sapiens, A549, 72 h) of 500 to 5000 nM.

Turning to `O=C(NCc1cccc(C2CC2)c1)c1cn(CCCCn2cc(C(=O)NCc3cc(C(F)(F)F)ccn3)nn2)nn1` [Example 105, 1-[4-(4-{[(3-cyclopropylphenyl)methyl]carbamoyl}-1H-1,2,3-triazol-1-yl)butyl]-N-{[4-(trifluoromethyl)pyridin-2-yl]methyl}-1H-1,2,3-triazole-4-carboxamide], in assay [1], the half-inhibitory concentration (IC50) was less than 100 nM. In the assay with A549 cells (Homo sapiens, A549, 72 h), this compound came in with a concentration giving a half-maximal response (EC50) of less than 100 nM.

As for `O=C(NCc1cccc(OC(F)(F)F)c1)c1cn(CCCCn2cc(C(=O)NCc3cc(C4CC4)ccn3)nn2)nn1` [Example 106, N-[(4-cyclopropylpyridin-2-yl)methyl]-1-{4-[4-({[3-(trifluoromethoxy)phenyl]methyl}carbamoyl)-1H-1,2,3-triazol-1-yl]butyl}-1H-1,2,3-triazole-4-carboxamide], the concentration for half-maximal inhibition (IC50) in assay [1] was less than 100 nM. In the assay on A549 cells (Homo sapiens, A549, 72 h), this compound came in with a half-maximal effective concentration (EC50) of less than 100 nM.

Turning to `O=C(NCc1cc(C(F)(F)F)ccn1)c1cn(CCCCn2cc(C(=O)NCc3cc(F)ccc3Cl)nn2)nn1` [Example 107, 1-[4-(4-{[(2-chloro-5-fluorophenyl)methyl]carbamoyl}-1H-1,2,3-triazol-1-yl)butyl]-N-{[4-(trifluoromethyl)pyridin-2-yl]methyl}-1H-1,2,3-triazole-4-carboxamide], the IC50 in assay [1] is less than 100 nM. This compound also gave an EC50 with A549 cells (Homo sapiens, A549, 72 h) of less than 100 nM.

Consider `COc1cccc(CNC(=O)c2cn(CCCCn3cc(C(=O)NCc4cc(C(F)(F)F)ccn4)nn3)nn2)c1` [Example 108, 1-[4-(4-{[(3-methoxyphenyl)methyl]carbamoyl}-1H-1,2,3-triazol-1-yl)butyl]-N-{[4-(trifluoromethyl)pyridin-2-yl]methyl}-1H-1,2,3-triazole-4-carboxamide], for which the IC50 in assay [1] was less than 100 nM. The compound also returned an EC50 in the assay with A549 cells (Homo sapiens, A549, 72 h) of 100 to 500 nM.

Turning to `CC(NC(=O)c1cn(CCCCn2cc(C(=O)NCc3cc(C(F)(F)F)ccn3)nn2)nn1)c1cccc(OC(F)(F)F)c1` (stereo not drawn) [Example 109, 1-{4-[4-({1-[3-(trifluoromethoxy)phenyl]ethyl}carbamoyl)-1H-1,2,3-triazol-1-yl]butyl}-N-{[4-(trifluoromethyl)pyridin-2-yl]methyl}-1H-1,2,3-triazole-4-carboxamide], the concentration for half-maximal inhibition (IC50) in assay [1] was less than 100 nM. The same compound showed an EC50 with A549 cells (Homo sapiens, A549, 72 h) of 100 to 500 nM.

Consider `CC(C)(C)OC(=O)NCc1cccc(CNC(=O)c2cn(CCCCn3cc(C(=O)NCc4cc(C(F)(F)F)ccn4)nn3)nn2)c1` [Example 110, tert-butyl N-[(3-{[(1-{4-[4-({[4-(trifluoromethyl)pyridin-2-yl]methyl}carbamoyl)-1H-1,2,3-triazol-1-yl]butyl}-1H-1,2,3-triazol-4-yl)formamido]methyl}phenyl)methyl]carbamate], for which the IC50 in assay [1] was less than 100 nM. For the same compound, in the assay with A549 cells (Homo sapiens, A549, 72 h), the EC50 was less than 100 nM.

Take `O=C(NCc1cccc(Cl)c1)c1cn(CCCCn2cc(C(=O)NCc3cc(C(F)(F)F)ccn3)nn2)nn1` [Example 111, 1-[4-(4-{[(3-chlorophenyl)methyl]carbamoyl}-1H-1,2,3-triazol-1-yl)butyl]-N-{[4-(trifluoromethyl)pyridin-2-yl]methyl}-1H-1,2,3-triazole-4-carboxamide]: the IC50 in assay [1] is less than 100 nM. For the same compound, the concentration for a half-maximal effect (EC50) in the assay with A549 cells (Homo sapiens, A549, 72 h) was less than 100 nM.

Regarding `O=C(NCc1cccc(F)c1)c1cn(CCCCn2cc(C(=O)NCc3cc(C(F)(F)F)ccn3)nn2)nn1` [Example 112, 1-[4-(4-{[(3-fluorophenyl)methyl]carbamoyl}-1H-1,2,3-triazol-1-yl)butyl]-N-{[4-(trifluoromethyl)pyridin-2-yl]methyl}-1H-1,2,3-triazole-4-carboxamide], the IC50 in assay [1] is 100 to 500 nM. In the assay with A549 cells (Homo sapiens, A549, 72 h), this compound displayed an EC50 of 100 to 500 nM.

Consider `O=C(NCc1cccc(CO)c1)c1cn(CCCCn2cc(C(=O)NCc3cc(C(F)(F)F)ccn3)nn2)nn1` [Example 113, 1-{4-[4-({[3-(hydroxymethyl)phenyl]methyl}carbamoyl)-1H-1,2,3-triazol-1-yl]butyl}-N-{[4-(trifluoromethyl)pyridin-2-yl]methyl}-1H-1,2,3-triazole-4-carboxamide], for which, in assay [1], the half-maximal inhibitory concentration (IC50) was less than 100 nM. The compound also registered a concentration giving a half-maximal response (EC50) in the assay with A549 cells (Homo sapiens, A549, 72 h) of 500 to 5000 nM.

As for `O=C(NCc1cc(C(F)(F)F)ccn1)c1cn(CCCCn2cc(C(=O)NCC3CCCCO3)nn2)nn1` (stereo not drawn) [Example 114], the IC50 in assay [1] lay within 500 to 5000 nM. Besides, the EC50 with A549 cells (Homo sapiens, A549, 72 h) lay in the range of 500 to 5000 nM.

For the compound `O=C(NCc1cccc(OC(F)(F)F)c1)c1cn(CCCCn2cc(C(=O)NCC3CC4CCC3O4)nn2)nn1` (stereo not drawn) [Example 115, N-{7-oxabicyclo[2.2.1]heptan-2-ylmethyl}-1-{4-[4-({[3-(trifluoromethoxy)phenyl]methyl}carbamoyl)-1H-1,2,3-triazol-1-yl]butyl}-1H-1,2,3-triazole-4-carboxamide], in assay [1], the IC50 was in the range of 500 to 5000 nM. The compound further displayed an EC50 with A549 cells of 500 to 5000 nM.
